From patent US20170217982A1, “Compound isolated from Pseudolysimachion rotundum var. subintegrum, the composition comprising the same for treating allergic disease, inflammatory disease, asthma or chronic obstructive pulmonary disease and the use thereof” (YUNGJIN PHARMACEUTICAL CO., LTD, priority 2014, published 2017)
Values joined by “and” are separate entries in the source; they are usually repeats but may differ in a detail not shown here. Equal entries are not always repeated.

Tests used:
MUC5AC = assay: Inhibition of TNF-alpha induced MUC5AC mRNA expression in H292 cells (qRT-PCR); type: cell-based, human; conditions: TNF-α 20 ng/ml
Description: In order to determine the inhibitory effect on the expression of MUC5AC induced by TNF-alpha in H292 cell line, following test was performed:
The isolation of total RNA, cDNA synthesis and quantitative real-time PCR were performed by the method disclosed in the literature (Kim et al., J. Cell. Biochem. 2008, 104, 1906-1917).
In summary, total RNA was isolated using by TRIzol reagent (155596-026, Life Technologies) and the first strand cDNA was synthesized using by enzyme (Omniscript Reverse Transcriptase, 205113, Qiagen, Calif.). The quantitative real-time PCR amplification was performed using by apparatus 1 (S1000 Thermal cycler, Bio-rad, USA) and apparatus 2 (2× Greenstar master mix, Bioneer, Korea) according to the manufacture's manual.
Specifically, the reproduced amount of TNF-alpha induced MUC5AC was determined by Real-time polymerase chain reaction (real-time PCR), quantitative real time polymerase chain reaction (qPCR) and MUC5AC immunoassay. H292 cells were inoculated into 48 well plates in a concentration of 2×10^4 cells/well to adhere for 24 hours and the culture medium was replaced with new 0.1% FBS containing medium to culture for 24 hours. […]
In order to extract total RNA, RNA was extracted using by Trizol B (Invitrogen) and cDNA was synthesized using by Omniscript RT kit (Qiagen, GmbH, Hilden, Germany) after the quantification.

COPD induced mice = assay: Anti-COPD effect in cigarette smoke + LPS COPD mouse model; type: in vivo, C57BL/6N mouse; conditions: for activity of neutrophils elastase enzyme in BALF comparing with COPD induced group / reduced level of ROS in BALF comparing with COPD induced group / reduced level of neutrophils in BALF comparing with COPD induced group / reduced level of proteins in BALF comparing with COPD induced group / reduced level of IL-6 in BALF comparing with COPD induced group / reduced level of TNF-alpha in BALF comparing with COPD induced group: COPD mice; for reduced level of IL-6 in BALF comparing with COPD induced group / reduced level of TNF-alpha in BALF comparing with COPD induced group: ELISA
Description: In order to determine the anti-COPD effect of inventive compounds in COPD animal model, following test was performed by using COPD induced mice as disclosed in the literature (Bhaysar, T. et al., J. Chronic Obstr. […]. Dis., 2008, 3, 477-481). Specific pathogen-free male C57BL/6N mouse (about 22-24 g), aged 6 weeks, which were routinely screened serologically for relevant respiratory pathogens, were purchased from Koatech Co. (koatech.co.kr, Seoul, Korea) and bred allowing to access freely to feed (antibiotic free, Samyang Oil & Feed Corp., Korea) and water in breeding room controlling the temperature of 22±2° C., and humidity of 55±15% at the light-dark cycle for 12 hours and acclimated with the experimental environment for 1 week. 2 kinds of test samples, […] ingredient: Roflumilast, 10 mg/kg) were dissolved in 0.5% sodium carboxymethyl cellulose ([…], Sigma-Aldrich, USA) and used as test samples. KS534, and Rolflumilast (ROF 11-492, HETERO, India) were orally administrated to the mice, 1 hour before prior the intratracheal instillation (i.t.). 3R4F Kentuchy Reference Cigarettes ([…], USA) was used as a standard cigarette for generating a cigarette smoke. The cigarette containing 9.4 mg of tar, 11 mg of TPM (total particle matter) and 12 mg of carbon monooxide per piece, was used after harmonizing with the temperature of 22±1° C. and humidity of 60±2% after opening for 48-72 hrs. The exposure of cigarette smoke was performed by using a cigarette smoke generator (DBL Co. Ltd., dhbiolink.com, Korea). The mice were divided into five groups: normal (NC), COPD (cigarette smoke with LPS intranasal instillation), Rof (10 mg/kg of roflumilast, p.o.+cigarette smoke with LPS intranasal instillation), and KS534-15 and 30 (15 mg/kg and 30 mg/kg of KS534, p.o.+cigarette smoke with LPS instillation, respectively). Exposure of cigarette smoke (one puff/min, 35 ml puff volume over 2 s, every 60 s, 8 cigarettes per day) was conducted using a cigarette smoke generator. The mice received 1 h of cigarette smoke exposure in an exposure chamber (50 cm×30 cm×30 cm) for 3 days. Roflumilast and piscroside C were administered to mice by oral lavage 1 h before cigarette smoke exposure for 3 days. LPS was intranasally instilled ([…] dissolved in 50 μL distilled water) under anesthesia 1 h after the final exposure to cigarette smoke. After the end of experiment, the blood, BALF, and pneumonocyte of each rat were isolated and collected to test. After finishing the experiment, rats were anaesthetized with Zoleti150 (3VX9, Virbac, France, p.o) and the blood was delivered through caudal veins. In order to isolate BALF from lung, the bronchus of right lung was ligated with suture and then performed to tracheostomy. IV-use catheter (16 GA, 3S-Cath, Dukwoo, Korea) was put into the bronchus, and both of bronchus and catheter (16 GA, 3S-Cath, Dukwoo, Korea) were fixed with suture. The injector containing 1 ml of DPBS 0.7 (Dubecco's phosphate-buffered saline, Invitrogen, USA) was connected thereto and DPBS was forced to circulate three times to isolate BALF. The right lung ligated with suture was isolated, fixed with 10% neutral formalin solution, and the remaining lung tissue was reserved in refrigerator at -70° C. The isolated BALF was centrifuged for 15 mins at 1500 rpm to prepare cell pellet and the supernatant was reserved in refrigerator at -70° C. for cytokine analysis. The cell pellet was suspended in DPBS, and the cell was attached to a slide glass using by cytospin centrifuge (CS03270047, Hanil, Korea). Diff-Quik staining (ZS1003, Sysmex, Japan) was performed and the cell was observed by optical microscopy (DM1000, Leica, German) to count the number of immunocyte in each test sample. The level of ROS in BALF isolated from the mice was determined by DCF-DA (dihydrodo chloro fluoresce indiacetate, 35854, Sigma-Aldrich, USA) and the final concentration of DCF-DA was adjusted to 20 μm in 200 μL to incubate 30 mins. […]

SMILES: O=C(CO)O[C@@H]1O[C@@H]2C[C@H]3[C@H](OC(=O)c4ccc(O)c(O)c4)[C@@H](Cl)[C@@](O)(CO2)[C@@H]13 [KS-534, (3R,5S,5aS,6R,7S,8R,8aS)-8-chloro-8a-hydroxy-5-(2-hydroxyacetoxy) hexahydro-1H-3,6-methanocyclopenta[e][1,3]dioxepin-7-yl3,4-dihydroxybenzoate]
- Expressed level of MUC5AC mRNA (Relative % comparing with that in TNF-alpha treatment group) (MUC5AC; 10 μM): 58.47% and 58.47 ± 18.50%
- Inhibitory ratio (%) of MUC5AC mRNA expression (MUC5AC; 10 μm): 41.52%
- activity of neutrophils elastase enzyme in BALF comparing with COPD induced group (COPD induced mice; 15 mg/kg p.o.): remarkably reduced
- reduced level of ROS in BALF comparing with COPD induced group (COPD induced mice; 15 mg/kg p.o.): 19.5%
- reduced level of neutrophils in BALF comparing with COPD induced group (COPD induced mice; 15 mg/kg p.o.): 26.3%
- reduced level of proteins in BALF comparing with COPD induced group (COPD induced mice; 15 mg/kg p.o.): 20.8%
- reduced level of IL-6 in BALF comparing with COPD induced group (COPD induced mice; 15 mg/kg p.o.): 35.8%
- reduced level of TNF-alpha in BALF comparing with COPD induced group (COPD induced mice; 15 mg/kg p.o.): 18.3%
- activity of neutrophils elastase enzyme in BALF comparing with COPD induced group (COPD induced mice; 30 mg/kg p.o.): remarkably reduced
- reduced level of ROS in BALF comparing with COPD induced group (COPD induced mice; 30 mg/kg p.o.): 27.5%
- reduced level of neutrophils in BALF comparing with COPD induced group (COPD induced mice; 30 mg/kg p.o.): 25.7%
- reduced level of proteins in BALF comparing with COPD induced group (COPD induced mice; 30 mg/kg p.o.): 28.5%
- invasion of the inflamed cells in lung tissue (histology) (COPD induced mice; 30 mg/kg p.o., COPD mice (FIG. 14)): significantly reduced
- reduced level of IL-6 in BALF comparing with COPD induced group (COPD induced mice; 30 mg/kg p.o.): 50.6%
- reduced level of TNF-alpha in BALF comparing with COPD induced group (COPD induced mice; 30 mg/kg p.o.): 27.6%
